Data set [1] in a line: Absorption of sodium cefoxitin with or without alcohol-lysine esters in rats, percent bioavailability versus intravenous (Example 6). The settings on record: for bioavailability: rat, serum, 2.5 mg; for effect as absorption promoter at 5 mg/dose (in words): 5 mg/dose level, comparison with hexadecyl lysinate. How it is done:
Blood samples were collected, sodium cefoxitin assayed, and "area-under-the-curve"* calculated. Percent bioavailability was determined versus intravenous administration. Each animal received 2.5 mg sodium cefoxitin ±5.0 mg alcohol-lysine ester. From 3 to 12 animals were used for each compound.

The nature of data set [2]: Absorption of sodium cefoxitin with varying concentrations of hexadecyl lysinate in rats, percent bioavailability (Example 9). The format is in vivo, rat. To be noted: for bioavailability: rat, serum, 2.5 mg, pH 6, rats, hexadecyl lysinate 0 mg/body, 2.5 mg sodium cefoxitin, pH 6. As to the method: Percent bioavailability was determined versus intravenous administration. Each animal received 2.5 mg sodium cefoxitin with varying amounts of hexadecyl lysinate.

Data set [3] can be described thus: Absorption of cytarabine with or without hexadecyl lysinate in rats, percent bioavailability versus intravenous (Example 8). To be noted: rat, in vivo, 2.5 mg, pH 6, rats, 2.5 mg cytarabine ± 5.0 mg hexadecyl lysinate, 250 μl, pH 6, versus intravenous. As to the method: The absorption of cytarabine, an antineoplastic and antiviral agent, was tested in rats employing aqueous formulations of cytarabine and hexadecyl lysinate. The compounds were administered in a total volume of 250 μl at pH 6. Both rectal and duodenal sites in the intestine were tested. Blood samples were collected, cytarabine assayed, and "area-under-the-curve"* calculated. Percent bioavailability was determined versus intravenous administration. Each animal received 2.5 mg cytarabine ±5.0 mg hexadecyl lysinate. Three animals were used for each experiment.

The term bioavailability denotes the share of a dose that reaches the circulation, judged against a reference dose that is usually intravenous.

As for `CO[C@@]1(NC(=O)Cc2cccs2)C(=O)N2C(C(=O)O)=C(COC(N)=O)CS[C@@H]21` [Cefoxitin], the bioavailability in data set [1] (intestinal absorption of sodium cefoxitin, with 5 mg/dose promoter (hexadecyl lysinate) or without) worked out at 1%; in data set [1] (pH 7, Percent Cefoxitin Bioavailability (mean ± SE), Duodenal, rats, 2.5 mg sodium cefoxitin ± 5.0 mg alcohol-lysine ester, 250 μl, pH 7, versus intravenous) it was 1%; in data set [1] (pH 7, Percent Cefoxitin Bioavailability (mean ± SE), Rectal, rats, 2.5 mg sodium cefoxitin ± 5.0 mg alcohol-lysine ester, 250 μl, pH 7, versus intravenous), 2 ± 1.1%; in data set [2] (duodenal, read-out: Percent Cefoxitin Bioavailability (mean ± SE), Duodenal), 1%; in data set [2] (rectal, read-out: Percent Cefoxitin Bioavailability (mean ± SE), Rectal), 2 ± 1.1%.

On to `Nc1ccn([C@@H]2O[C@H](CO)[C@@H](O)[C@@H]2O)c(=O)n1` [Cytarabine], for which the bioavailability in data set [3] (duodenal, read-out: Percent Cytarabine Bioavailability (mean ± SE), Duodenal) was 5%; in data set [3] (rectal, read-out: Percent Cytarabine Bioavailability (mean ± SE), Rectal), 6 ± 1.7%.

For `O=C(O)CN(CCN(CC(=O)O)CC(=O)O)CC(=O)O` [EDTA], the “effect as absorption promoter at 5 mg/dose (in words)” value in data set [1] is “ineffective”.

On to `CCCCCCCCCCCCCCCCOC(=O)[C@@H](N)CCCCN` [Hexadecyl lysinate], for which the “concentration dependence of absorption promoting effect (in words)” value in data set [2] (Example 9) is on record as “act in a concentration dependent manner”.

On to `O=C(O)c1ccccc1O` [salicylate], for which the “effect as absorption promoter at 5 mg/dose (in words)” value in data set [1] is given as “ineffective”.

The values above are taken from patent publication US4749694A, “Novel lysine esters used as absorption” (Merck & Co., Inc., priority 1984, dated 1988).
